# In patent EP0994104A1, “ARYL (SULFIDE, SULFOXIDE AND SULFONE) DERIVATIVES AND DRUGS CONTAINING THE SAME AS THE ACTIVE INGREDIENT” (ONO PHARMACEUTICAL CO., LTD., priority 1996, dated 1997):
# Biological target: T1, gelatinase A (Homo sapiens, UniProt P08253)
# T1 construct: endogenous in cells; host or cells: human normal skin dermal fibroblasts (HNDF)
# T1 sequence (P08253 110-660): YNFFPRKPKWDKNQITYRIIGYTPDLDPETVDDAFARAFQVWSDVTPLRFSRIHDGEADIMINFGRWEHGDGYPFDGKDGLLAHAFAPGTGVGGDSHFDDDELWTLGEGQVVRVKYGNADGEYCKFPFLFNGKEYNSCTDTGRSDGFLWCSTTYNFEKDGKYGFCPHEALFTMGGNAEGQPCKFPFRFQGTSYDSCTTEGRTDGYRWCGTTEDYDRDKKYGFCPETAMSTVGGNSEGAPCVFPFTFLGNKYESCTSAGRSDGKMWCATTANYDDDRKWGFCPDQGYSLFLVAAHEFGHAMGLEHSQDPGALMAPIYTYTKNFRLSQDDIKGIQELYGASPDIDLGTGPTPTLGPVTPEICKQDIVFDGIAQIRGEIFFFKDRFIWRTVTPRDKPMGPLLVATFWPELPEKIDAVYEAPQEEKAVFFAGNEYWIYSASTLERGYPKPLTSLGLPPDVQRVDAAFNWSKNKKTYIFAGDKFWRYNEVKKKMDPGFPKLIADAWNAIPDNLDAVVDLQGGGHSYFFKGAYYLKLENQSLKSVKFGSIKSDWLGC
# Assay: Inhibitory activity against gelatinase A (FITC-gelatin degradation, fluorescence)
# Format: biochemical
# Conditions: progelatinase A purified from human normal skin dermal fibroblasts (HNDF), activated with APMA; 0.05 % FITC-gelatin, 2 hours at 37°C
# Protocol: (1) Inhibitory activity against gelatinase A.
# The progelatinase A (7 µl; in assay buffer (90 µl) was purified from human normal skin dermal fibroblasts (HNDF). It was activated by the addition of 10 mM APMA (10 µl) for 1 hour at 37°C. The solution of activated gelatinase A (1 U/tube, 98 µl) was mixed with the solution of various concentrations of the test compound or the solution in which the test compound is not added, (2 µl), and 0.05 % FITC-gelatin (100 µl) and incubated for 2 hours at 37°C. The enzymatic reaction was terminated by the addition of 2 M Tris-HCl (pH 9.5) containing 94.7% ethanol (750 µl). The mixture was stirred and then allowed to stand for 30 minutes at 0°C. The mixture was centrifuged for 30 minutes at 900 x g. Inhibitory activity against gelatinase was determined by measuring the fluorescent intensity in supernatant (Ex = 495 nm, and Em = 520 nm).
# In the above experimental method, APMA is p-aminophenylmercuric acetate and FITC is fluorescein isothiocyanate.
smiles,measurement,value
"O=C(O)CCS(=O)(=O)c1ccc(NC(=O)c2ccccc2)cc1 [Example 8(2), 3-[4-(benzoylamino)phenylsulfonyl]propionic acid]",IC50,0.54 µM
"O=C(O)CCS(=O)(=O)c1ccc(C#Cc2ccccc2)cc1 [Example 8(7), 3-[4-(phenylethynyl)phenylsulfonyl]propionic acid]",IC50,0.4 µM
"COc1ccc(S(=O)(=O)CC(NC(=O)C(NC(=O)OC(C)(C)C)c2ccccc2)C(=O)NO)cc1 (stereo not drawn) [Example 19(1), N-hydroxy-2-[N-[N-(t-butoxycarbonyl)phenylglycyl]amino]-3-(4-methoxyphenylsulfonyl)propionamide]",IC50,0.011 µM
"CC(CS(=O)(=O)c1ccc(-c2cc3ccccc3o2)cc1)C(=O)NO (stereo not drawn) [Example 28(1), N-hydroxy-2-methyl-3-[4-(2-benzofuranyl)phenylsulfonyl]propionamide]",IC50,0.0014 µM
"Cc1ccc(C#Cc2ccc(S(=O)(=O)CC(C)C(=O)NO)cc2)cc1 (stereo not drawn) [Example 28(3), N-hydroxy-2-methyl-3-[4-(4-tolylethynyl)phenylsulfonyl]propionamide]",IC50,0.0029 µM
"CCCCCC#Cc1ccc(S(=O)(=O)CC(C)C(=O)NO)cc1 (stereo not drawn) [Example 28, N-hydroxy-2-methyl-3-[4-(1-heptynyl)phenylsulfonyl]propionamide]",IC50,0.013 µM
